Key:
[1] = tested on: A549 (human lung cancer) cell line; test: MTT cell proliferation (cytotoxicity) assay, A549; assay type: cell-based; settings: average of two separate determinations
Method: (§1) Taking GDC-0941 as reference compound, the target compounds […], 12a–j, 13a–g and 14a–g ere evaluated for the cytotoxicity against the three cancer cell lines A549, PC-3 and MCF-7 usg 3-(4,5-dimethylthiazolyl-2)-2,5-diphenyltetrazolium bromide (MTT) cell proliferation assays. In addition, one selected compounds 12h was fher evaluated for PI3Kα kinase inhibitory activity. The results, expressed as IC50 values or inhibitory rate, are sumrized in Table 1, Table 2 and Table 3.
(§2) The in vitro cytotoxic activities of all the compounds 11a–11j, 12a–12j, 13a–13g and 14a–14g was evaluated with A549, PC-3 and MCF-7 cell lines by the standard MTT assay, with GDC-0941 as positive control. The cancer cell lines were cultured in minimum essential medium (MEM) supplement with 10% fetal bovine serum (FBS). Approximately 4 × 10^3 cells, suspended in MEM medium, were plated onto each well of a 96-well plate and incubated in 5% CO2 at 37 °C for 24 h. The test compounds at indicated final concentrations were added to the culture medium and the cell cultures were continued for 72 h. Fresh MTT was added to each well at a terminal concentration of […] and incubated with cells at 37 °C for 4 h. The formazan crystals were dissolved in 100 µL DMSO each well, and the absorbency at 492 nm (for absorbance of MTT formazan) and 630 nm (for the reference wavelength) was measured with an ELISA reader. All of the compounds were tested three times in each of the cell lines. The results expressed as inhibition rates or IC50 (half-maximal inhibitory concentration) were the averages of two determinations and calculated by using the Bacus Laboratories Inc. Slide Scanner (Bliss) software (the Bacus Laboratories Inc. Slide Scanner (BLISS) system, Lombard, IL, USA).

[2] = tested on: PC-3 (human prostatic cancer) cell line; test: MTT cell proliferation (cytotoxicity) assay, PC-3; assay type: cell-based; settings: 72 h, average of two separate determinations
Method: as §1, §2

[3] = tested on: MCF-7 (human breast cancer) cell line; test: MTT cell proliferation (cytotoxicity) assay, MCF-7; assay type: cell-based; settings: average of two separate determinations
Method: as §1, §2

[4] = Homo sapiens, A549, 72 h, Table 1
[5] = Homo sapiens, MCF7, 72 h, Table 1
[6] = Homo sapiens, A549, 72 h, Table 2
[7] = Homo sapiens, MCF7, 72 h, Table 2

In the case of `O=C(Nc1ccc(-c2nc3c(c(N4CCOCC4)n2)CSCC3)cc1)c1cc(-c2cccc(F)c2)ccn1` [Compound 11b, N-(4-(4-Morpholino-7,8-dihydro-5H-thiopyrano[4,3-d]pyrimidin-2-yl)phenyl)-4-(3-fluorophenyl)pyridine amide], the IC50 [1, 4] is reported as 48.08 ± 0.13 µM, the IC50 ([2]; Homo sapiens, Table 1) is reported as 60.3 ± 1.24 µM and the IC50 [3, 5] is reported as 51.7 ± 1.56 µM. The melting point was 236.5 to 238.4 °C.

Compound `O=C(Nc1ccc(-c2nc3c(c(N4CCOCC4)n2)CSCC3)cc1)c1cc(-c2ccc(C(F)(F)F)cc2)ccn1` [Compound 11d, N-(4-(4-Morpholino-7,8-dihydro-5H-thiopyrano[4,3-d]pyrimidin-2-yl)phenyl)-4-(4-trifluoromethylphenyl) picolinamide] has an IC50 [1, 4] of 43.46 ± 0.12 µM, an IC50 [3, 5] of 50.3 ± 2.18 µM and a melting point of 229.3 to 231.7 °C.

In the case of `O=C(Nc1ccc(-c2nc3c(c(N4CCOCC4)n2)CSCC3)cc1)c1cc(-c2ccc(Cl)cc2)ccn1` [Compound 11e, N-(4-(4-Morpholino-7,8-dihydro-5H-thiopyrano[4,3-d]pyrimidin-2-yl)phenyl)-4-(4-chlorophenyl)pyridine amide], the IC50 [1, 4] is reported as 19.3 ± 0.86 µM, the IC50 ([2]; Homo sapiens, Table 1) is reported as 23.2 ± 0.76 µM and the IC50 [3, 5] is reported as 20.9 ± 1.02 µM. For the same compound, the melting point was 235.3 to 236.2 °C.

Compound `COc1ccc(-c2ccnc(C(=O)Nc3ccc(-c4nc5c(c(N6CCOCC6)n4)CSCC5)cc3)c2)cc1` [Compound 11i, N-(4-(4-Morpholino-7,8-dihydro-5H-thiopyrano[4,3-d]pyrimidin-2-yl)phenyl)-4-(4methoxyphenyl) pyridine-carboxamide] has an IC50 [1, 4] of 27.68 ± 0.1 µM, an IC50 ([2]; Homo sapiens, Table 1) of 65.66 ± 0.61 µM and an IC50 [3, 5] of 32.4 ± 1.84 µM. It also gave a melting point of 233.6 to 235.1 °C.

`O=C(Nc1ccc(-c2nc3c(c(N4CCOCC4)n2)CS(=O)(=O)CC3)cc1)c1cc(-c2ccccc2)ccn1` [Compound 12a, N-(4-(4-Morpholino-7,8-dihydro-6,6-dioxide-5H-thiopyrano[4,3-d]pyrimidin-2-yl)phenyl)-4-phenylpyridine Amide] gave an IC50 ([2]; Homo sapiens, Table 1) of 74.27 ± 0.08 µM and a melting point of 229 to 233.8 °C.

In the case of `Cc1ccc(-c2ccnc(C(=O)Nc3ccc(-c4nc5c(c(N6CCOCC6)n4)CS(=O)(=O)CC5)cc3)c2)cc1` [Compound 12g, N-(4-(4-Morpholino-7,8-dihydro-6,6-dioxide-5H-thiopyrano[4,3-d]pyrimidin-2-yl)phenyl)-4-(4-methylphenyl) pyridinecarboxamide], the IC50 [1, 4] is reported as 14.51 ± 0.1 µM, the IC50 ([2]; Homo sapiens, Table 1) is reported as 64.71 ± 0.17 µM and the IC50 [3, 5] is reported as 28.9 ± 1.29 µM. It also gave a melting point of 290.2 to 293.1 °C.

For `COc1ccc(-c2cc(C(=O)Nc3ccc(-c4nc5c(c(N6CCOCC6)n4)CSCC5)cc3)ncn2)cc1` [Compound 13b], the IC50 [1, 6] was greater than 100 µM, the IC50 ([2]; Homo sapiens, Table 2) was greater than 100 µM and the IC50 [3, 7] was greater than 100 µM. For the same compound, the melting point was 210 to 212.7 °C.

`O=C(Nc1ccc(-c2nc3c(c(N4CCOCC4)n2)CSCC3)cc1)c1cc(-c2ccc(C(F)(F)F)cc2)ncn1` [Compound 13c] gave an IC50 [1, 6] greater than 100 µM, an IC50 ([2]; Homo sapiens, Table 2) greater than 100 µM and an IC50 [3, 7] greater than 100 µM. For the same compound, the melting point was 244.2 to 245.8 °C.

`O=C(Nc1ccc(-c2nc3c(c(N4CCOCC4)n2)CSCC3)cc1)c1cc(-c2ccc(F)cc2)ncn1` [Compound 13d] gave an IC50 [1, 6] greater than 100 µM, an IC50 ([2]; Homo sapiens, Table 2) greater than 100 µM and an IC50 [3, 7] greater than 100 µM. The melting point was 237 to 239.3 °C.

For `O=C(Nc1ccc(-c2nc3c(c(N4CCOCC4)n2)CSCC3)cc1)c1cc(-c2ccc(Br)cc2)ncn1` [Compound 13e], the IC50 [1, 6] was greater than 100 µM, the IC50 ([2]; Homo sapiens, Table 2) was greater than 100 µM and the IC50 [3, 7] was greater than 100 µM. It also gave a melting point of 251.8 to 255 °C.

With `CS(=O)(=O)N1CCN(Cc2cc3nc(-c4cccc5[nH]ncc45)nc(N4CCOCC4)c3s2)CC1` [GDC-0941, reference compound] the IC50 [1, 4] was 6.99 ± 0.21 µM, the IC50 ([2]; Homo sapiens, Table 1) was 0.2 ± 0.08 µM and the IC50 [3, 5] was 0.07 ± 0.03 µM.

For “N-(4-(4-Morpholino-7,8-dihydro-5H-thiopyrano[4,3-d]pyrimidin-2-yl)phenyl)-6-(p-tolyl)pyrimidine-4-formamide [Compound 13a]”, the IC50 ([1]; 72 h, Table 2) was greater than 100 µM, the IC50 ([2]; Table 2) was greater than 100 µM and the IC50 ([3]; 72 h, Table 2) was greater than 100 µM.

Work on “N-(4-(4-Morpholino-7,8-dihydro-5H-thiopyrano[4,3-d]pyrimidin-2-yl)phenyl)-6-phenylpyridine-4-carboxamide [Compound 13g]” yielded an IC50 ([1]; 72 h, Table 2) greater than 100 µM, an IC50 ([2]; Table 2) greater than 100 µM and an IC50 ([3]; 72 h, Table 2) greater than 100 µM.

Reference: PMC6273168, “Synthesis and Biological Evaluation of Novel 4-Morpholino-7,8-dihydro-5H-thiopyrano[4,3-d]pyrimidine Derivatives Bearing Phenylpyridine/ Phenylpyrimidine-Carboxamides” (Molecules, 2016)
